In one data set the test system is Pfeiffer cells. As to the kind of experiment: Experiment on Pfeiffer cell proliferation (CellTiter-Glo). Format: cell-based, human. The conditions noted are these: Homo sapiens. Here is the method:
90 uL of cells were added to each well of a 96-well plate at 12000 cells/well, and cell-free culture medium was added to blank control wells. The plate was incubated overnight in an incubator at 37° C., 5% CO2 and 100% relative humidity. The compounds were diluted from highest to lowest concentration gradient with DMSO to make stock solutions at 400-fold and 10-fold concentration. 10 μL of 10× compound working solution was added to the cell culture plate, and the total concentration of the compound was detected from 10 μM, 9 concentration points in total, and 3-fold serial dilution was performed. 10 μL of DMSO-cell culture medium mixture solution was added to the vehicle control wells and blank control wells. The final concentration of DMSO was 0.25%. The plate was put back in the incubator for another 7 days of culturing.
The cell culture plate cultured for 7 days was taken out of the incubator, and the suspended cells in the 96-well plate were mixed well by pipetting multiple times. 74 uL of fresh cell culture medium was added to a new 96-well plate, and 16 uL of cell suspension was pipetted from the 96-well plate with cells mixed well by pipetting into the new 96-well plate to bring the total volume to 90 uL. Cells in the new 96-well plate were treated with the compound. The new 96-well plate was put back in the incubator for another 7 days of culturing, and then cell viability was detected directly.
84 μL of cell suspension was taken from the cell culture plate for cell viability detection.
CellTiter-Glo buffer and substrate were thawed and balanced to room temperature. The CellTiter-Glo buffer was added to a bottle of CellTiter-Glo substrate to dissolve the substrate, thereby preparing CellTiter-Glo working solution. The bottle was subjected to slow vortex shaking to completely dissolve the substrate. The cell culture plate was taken out and balanced to room temperature for 30 min. 50 μL of CellTiter-Glo working solution was added to each well. The cell plate was wrapped with aluminum foil to keep out of light. The plate was shaken on an orbital shaker for 2 min to induce cell lysis. The plate was placed at room temperature for 10 min to stabilize the luminescence signals. The luminescence signals were detected on 2104 En Vision plate reader.
Inhibition rates of compounds at different concentrations were calculated in Excel, followed by plotting the inhibition curves and calculating relevant parameters including minimum (%), maximum (%), and absolute IC50 using GraphPad Prism software.
On the technique in general: ATP-based viability assays read luminescence as a measure of living cells.

The subject of data set [1] is subcutaneous xenograft tumor model of human B lymphocyte Pfeiffer. Nature of the data set: In vivo efficacy in subcutaneous xenograft tumor model of human B lymphocyte Pfeiffer. The conditions noted are these: SCID Beige mice, 100 mg/kg p.o. QD 21 days, tumor volume 21 days after administration. Also on record: species or system mouse. Here is the method: Human B lymphocyte strain Pfeiffer was cultured in vitro, in a monolayer way, in a RPMI-1640 medium containing 10% fetal bovine serum, 100 U/mL penicillin and 100 μg/mL streptomycin in an incubator at 37° C./5% CO2. Conventional medium refreshment and subculturing were carried out twice a week, and cells in logarithmic growth phase were collected and used for tumor inoculation after being counted.
Female SCID Beige mice, aged 6-8 weeks and weighed 18-22 g were used in the experiment. The experiment started after 7-day adaptive feed.
Each mouse was inoculated subcutaneously with 10×10^6 Pfeiffer cells in a volume of 0.2 mL in the right side of the neck. The cells were suspended with PBS and matrigel (volume ratio 1:1). After the average tumor volume reached 130 mm^3, the mice were divided into groups with 8 mice per group for administration. The administration volume was 10 uL/g and the dose was 100 mg/kg if there's no special labeling ((p.o. administration, QD, continuous administration for 21 days).
Animal body weights were measured twice weekly and animal mortality and side effects within each group were recorded based on the number of animals in the group.
The experimental indices were to investigate whether tumor growth was inhibited or delayed or the tumor was cured. Tumor diameters were measured twice weekly using a vernier caliper. The tumor volume was calculated according to the following formula: V=0.5 a×b^2, where a and b represent the long diameter and short diameter of the tumor, respectively. The tumor growth inhibitions (TGIs) of the compounds were evaluated by T/C (%). The percentage value of T/C (%) is an index for reflecting the tumor growth inhibition, where T and C represent the average tumor volume of the administration group and the control group, respectively, at a certain day.
The tumor growth inhibition rate was calculated according to the following formula: TGI (%)=(1−(Ti−T0)/(Vi−V0))×100, where Ti is the average tumor volume of a certain administration group on a certain day, T0 is the average tumor volume of the administration group at the start of administration, Vi is the average tumor volume of the vehicle control group on a certain day (same day as Ti) and V0 is the average tumor volume of the vehicle control group at the start of administration.
Relative tumor volumes at each time point for each group were statistically analyzed and differences among groups were assessed based on the data. The statistical method used for testing was one-way ANOVA.
(In xenograft studies the graft and the host belong to different species.)

A further data set addresses EZH2 (Y641F) (Homo sapiens (Human), UniProt Q15910, Y641F). As to the kind of experiment: Test on EZH2 (Y641F) inhibitory activity. Format: biochemical.
In another data set the target is EZH2 (Y641N) (Homo sapiens (Human), UniProt Q15910, Y641N). Nature of the data set: Test on EZH2 (Y641N) inhibitory activity. Format: biochemical.
Sequence of EZH2 (Y641N) (Q15910 whole entry Y641N): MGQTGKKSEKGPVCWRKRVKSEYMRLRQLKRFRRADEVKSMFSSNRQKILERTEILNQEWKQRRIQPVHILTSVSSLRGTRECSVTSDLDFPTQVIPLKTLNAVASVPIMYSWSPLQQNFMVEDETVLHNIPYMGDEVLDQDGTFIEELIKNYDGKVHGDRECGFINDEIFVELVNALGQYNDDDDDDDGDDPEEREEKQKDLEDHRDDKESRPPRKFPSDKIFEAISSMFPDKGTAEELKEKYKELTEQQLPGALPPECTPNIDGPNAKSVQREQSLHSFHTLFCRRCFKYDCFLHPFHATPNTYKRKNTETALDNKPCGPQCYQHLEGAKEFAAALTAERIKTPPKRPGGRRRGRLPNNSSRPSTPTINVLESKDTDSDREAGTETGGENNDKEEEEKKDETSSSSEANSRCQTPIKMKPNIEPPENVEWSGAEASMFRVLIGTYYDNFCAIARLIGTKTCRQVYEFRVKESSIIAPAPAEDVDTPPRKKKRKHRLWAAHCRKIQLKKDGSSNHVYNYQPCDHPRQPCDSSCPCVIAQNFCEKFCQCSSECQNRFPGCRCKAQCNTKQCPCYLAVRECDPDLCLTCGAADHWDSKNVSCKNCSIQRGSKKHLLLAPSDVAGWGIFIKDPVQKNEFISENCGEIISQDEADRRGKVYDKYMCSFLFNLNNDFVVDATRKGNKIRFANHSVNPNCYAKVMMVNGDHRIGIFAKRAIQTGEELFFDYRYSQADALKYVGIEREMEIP
Sequence of EZH2 (Y641N) (O75530 whole entry partner): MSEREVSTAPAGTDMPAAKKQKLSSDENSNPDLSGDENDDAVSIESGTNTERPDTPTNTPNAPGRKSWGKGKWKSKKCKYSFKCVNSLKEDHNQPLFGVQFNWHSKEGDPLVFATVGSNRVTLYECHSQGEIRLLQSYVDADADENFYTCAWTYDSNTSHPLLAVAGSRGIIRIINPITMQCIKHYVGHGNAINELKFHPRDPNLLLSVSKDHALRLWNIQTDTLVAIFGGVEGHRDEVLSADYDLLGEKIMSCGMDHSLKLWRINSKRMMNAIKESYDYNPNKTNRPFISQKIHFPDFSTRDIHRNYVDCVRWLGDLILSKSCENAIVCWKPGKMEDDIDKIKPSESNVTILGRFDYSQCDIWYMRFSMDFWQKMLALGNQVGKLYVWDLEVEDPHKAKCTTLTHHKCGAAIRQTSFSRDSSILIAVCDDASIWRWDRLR
Sequence of EZH2 (Y641N) (Q15022 whole entry partner): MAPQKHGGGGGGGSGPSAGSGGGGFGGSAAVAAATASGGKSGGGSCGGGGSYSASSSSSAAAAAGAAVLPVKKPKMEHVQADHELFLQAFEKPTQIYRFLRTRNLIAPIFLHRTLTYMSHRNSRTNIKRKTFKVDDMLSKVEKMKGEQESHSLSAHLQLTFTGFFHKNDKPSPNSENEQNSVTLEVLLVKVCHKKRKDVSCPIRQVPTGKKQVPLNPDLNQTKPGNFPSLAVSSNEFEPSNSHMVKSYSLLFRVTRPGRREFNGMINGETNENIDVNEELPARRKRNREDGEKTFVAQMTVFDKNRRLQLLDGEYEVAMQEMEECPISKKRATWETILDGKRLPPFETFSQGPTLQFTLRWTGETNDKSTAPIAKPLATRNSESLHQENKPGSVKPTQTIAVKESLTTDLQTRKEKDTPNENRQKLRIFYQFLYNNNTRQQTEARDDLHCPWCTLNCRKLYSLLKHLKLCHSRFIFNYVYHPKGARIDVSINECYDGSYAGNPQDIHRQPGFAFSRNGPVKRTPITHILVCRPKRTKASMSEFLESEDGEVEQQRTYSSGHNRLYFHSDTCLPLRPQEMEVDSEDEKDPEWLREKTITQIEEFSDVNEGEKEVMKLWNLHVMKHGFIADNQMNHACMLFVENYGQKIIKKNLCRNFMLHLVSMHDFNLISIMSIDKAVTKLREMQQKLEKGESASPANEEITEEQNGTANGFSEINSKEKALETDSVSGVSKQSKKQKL
A further data set relates to WSU-DLCL2 cells. Nature of the data set: Experiment on WSU-DLCL2 cell proliferation (Calcein-AM). The conditions noted are these: Homo sapiens. Type of data set: cell-based. Here is the method:
WSU-DLCL2 cells were plated in a 96-well plate and 100 uL of cells (a density of 1×10^5 cells/mL) and 50 uL of compound stock at 3-fold concentration was added to each well, and the final volume was 150 uL/well. After 6 days of culturing, on day 7, the cells in the well plate were mixed well by pipetting, and 50 uL of the cell suspension was pipetted to be tested for cell viability using Calcein-AM. 50 uL of the cell suspension was added to a 96-well plate coated by poly-D-Lysine, and then 50 uL of HBSS containing 2 uM Calcein-AM was added to make the final concentration of Calcein-AM 1 uM. After incubation for 10 min at room temperature, the cells were rapidly centrifuged to be deposited on the bottom of the plate. The cells were cultured in the incubator for another 40 min and then the plate was read on Acumen.
The remaining cells were diluted and then plated in a 96-well plate, and 100 uL of cells and 50 uL of a compound at 3-fold concentration were added to each well for further culturing until day 14, and the cell viability was detected as described above. The IC50 was calculated.

A further data set addresses EZH2 (wt) (Homo sapiens (Human), UniProt Q15910). As to the kind of experiment: Test on EZH2 (wt) inhibitory activity ([3H]-SAM Flashplate). Type of data set: biochemical.
Data set [2] is described as follows: In vivo pharmacokinetic properties in mice. Set-up: species or system mouse. The conditions noted are these: male ICR mice. The method, boiled down:
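Male ICR mice, n=3 per group, dosed once at 5 mg/kg IV in 10% DMSO/90% (20% Captisol) or 250 mg/kg intragastrically in 0.5% CMC-Na/0.1% Tween 80 (pH 3-4). EDTA-K2 plasma sampled from 5 min to 24 h; compound levels measured by LC-MS/MS.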

Where two headings read alike, the source gives them in different places.

This is an account of results in US12390472B2 (SUZHOU SINOVENT PHARMACEUTICALS CO., LTD., priority 2018, dated 2025).

Sequence of EZH2 (wt) (Q15910 whole entry): as the sequence (Q15910 whole entry Y641N) above, with N641Y counted along it
Sequence of EZH2 (wt) (O75530 whole entry partner): as the sequence (O75530 whole entry partner) above
Sequence of EZH2 (wt) (Q15022 whole entry partner): as the sequence (Q15022 whole entry partner) above
Sequence of EZH2 (Y641F) (Q15910 whole entry Y641F): as the sequence (Q15910 whole entry Y641N) above, with N641F counted along it
Sequence of EZH2 (Y641F) (O75530 whole entry partner): as the sequence (O75530 whole entry partner) above
Sequence of EZH2 (Y641F) (Q15022 whole entry partner): as the sequence (Q15022 whole entry partner) above

One may read the TGI as the reduction of tumour growth relative to the control group. A lower TGI goes with a weaker effect on the tumour. One may read the AUC(0-inf) as the area under the concentration-time curve extrapolated to infinity. As a reminder, the Cmax is the highest concentration seen after dosing. One may read the Tmax as the time at which the peak concentration occurs. One may read the half-life as the time needed for the level to fall by half in the phase considered. Consider `CCN(c1cc(O[C@H]2C[C@H](N3C[C@@H](C)O[C@@H](C)C3)C2)cc(C(=O)NCc2c(OC)cc(C)[nH]c2=O)c1C)C1CCC(F)(F)CC1` [Example 87, 3-((4,4-difluorocyclohexyl)(ethyl)amino)-5-(trans-3-(cis-2,6-dimethylmorpholino)cyclobutoxy)-N-((4-methoxy-6-methyl-2-oxo-1,2-dihydropyridin-3-yl)methyl)-2-methylbenzamide], for which the IC50 in the data set with Pfeiffer cells (168 h, Day 7, read-out: IC50 Pfeiffer proliferation Day 7) is 20 nM; in the data set on Pfeiffer cells (336 h, Day 14, read-out: IC50 Pfeiffer proliferation Day 14), 4.3 nM; at EZH2 (Y641F), 5.5 nM; at EZH2 (Y641N) it was 2.6 nM; with WSU-DLCL2 cells (WSUDLCL2, 168 h, WSU-DLCL2, Day 7, read-out: IC50 WSU-DLCL2 proliferation Day 7), 40 nM; in the data set with WSU-DLCL2 cells (WSUDLCL2, 336 h, WSU-DLCL2, Day 14, read-out: IC50 WSU-DLCL2 proliferation Day 14) it was 9 nM. Also, the IC50 against EZH2 (wt) came to 1.2 nM. The TGI in data set [1] is 42.84%. Further, the F in data set [2] (intragastric 250 mg/kg vs intravenous 5 mg/kg) was 35.4%. Moreover, the CL in data set [2] (single intravenous 5 mg/kg and intragastric 250 mg/kg study) turned out to be 31.0 ± 2.82 mL/min/lg. This compound displayed an AUC(0-inf) in data set [2] (mouse, plasma, oral, single intravenous 5 mg/kg and intragastric 250 mg/kg study) of 47800 ng·h/mL. Further, the Cmax in data set [2] (mouse, plasma, oral, single intravenous 5 mg/kg and intragastric 250 mg/kg study, read-out: Cmax) is 10600 ± 4150 ng/mL. Moreover, the Tmax in data set [2] (mouse, plasma, oral, single intravenous 5 mg/kg and intragastric 250 mg/kg study, read-out: Tmax) was 0.83 ± 0.29 h. In data set [2] (mouse, plasma, single intravenous 5 mg/kg and intragastric 250 mg/kg study), this compound showed a half-life of 5.77 ± 1.51 h.
